Values of other authors as cited in patent EP0879035B1, “BISMUTH-CONTAINING COMPOSITIONS IN TOPICAL DOSAGE FORMS” (Josman Laboratories, Inc., priority 1995, dated 1997).
Where two headings read alike, the source gives them in different places.

How the values were obtained:
[1] = rats treated for three months; 160, 320, and 640 mg/kg body weight
H. Pylori = details: against H. Pylori
[2] = in vivo
[3] = dogs treated for six months; 160, 320, and 640 mg/kg body weight

## 1,2,3-PROPANETRICARBONIC ACID, 2-HYDROXY, BISMUTH(3T)POTASSIUM [CBS]
[1]
  toxicity on chronic daily administration: No toxicity
H. Pylori
  minimum inhibitory concentration (MIC), range: 4 to 32 µg/mL
[2]
  steady-state blood levels unlikely to cause any neurotoxicity: 50-100
[2]; po
  systemic bioavailability of bismuth: 0.16-0.28 % of the administered dose
[3]
  toxicity on chronic daily administration: No toxicity
